Legend:
Test in all cases: relative viability (nuclei count vs DMSO), 5 days (fraction); higher = more cells survive
[1] = compound: Cn1cncc1[C@@](N)(c1ccc(Cl)cc1)c1ccc2c(c1)c(-c1cccc(Cl)c1)cc(=O)n2C [Tipifarnib]
Summary of the method: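 In 1536-well plates, lung cancer cell lines rested overnight at 37 °C before five library-drug doses (not always all listed), √10 apart, were pinned onto vehicle-anchored plates. Nuclei were counted with MetaXpress from 4× Hoechst images taken after 5 days without medium change. Viability compares treated-well with vehicle-well nuclei as a median over plates, and plates needed control CV below 25% plus at least one doubling to pass.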

[2] = compound: Cn1cncc1[C@@](N)(c1ccc(Cl)cc1)c1ccc2c(c1)c(-c1cccc(Cl)c1)cc(=O)n2C [Tipifarnib] + N=C(N)NC(=N)NCCc1ccccc1 [Phenformin] (partner 250 µM)
Summary of the method: (§1)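 Lung cancer cell lines were seeded in 1536-well plates and dosed by pin tool the next day, with either a single drug or a fixed anchor-drug dose combined with five library-drug doses (not always all listed) spaced in √10 steps. Five days later, one step fixed the cells and stained their nuclei (final 0.05% Triton X-100, 1% formaldehyde, 1 ug/ml Hoechst), and nuclei were counted on 4× images. Relative viability is the nuclei count in treated wells divided by the count in vehicle wells, and each value is the median of duplicate plates.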

[3] = compound: Cn1cncc1[C@@](N)(c1ccc(Cl)cc1)c1ccc2c(c1)c(-c1cccc(Cl)c1)cc(=O)n2C [Tipifarnib] + COc1cccc2cc(-c3nc([C@H]4CC[C@H](C(=O)O)CC4)n4ncnc(N)c34)[nH]c12 [OSI-027] (partner 0.5 µM)
Summary of the method: as §1

[4] = compound: Cn1cncc1[C@@](N)(c1ccc(Cl)cc1)c1ccc2c(c1)c(-c1cccc(Cl)c1)cc(=O)n2C [Tipifarnib] + CC(=O)Nc1cccc(-n2c(=O)n(C3CC3)c(=O)c3c(Nc4ccc(I)cc4F)n(C)c(=O)c(C)c32)c1 [Trametinib] (partner 0.02 µM)
Summary of the method: as §1

| Cell Line | relative viability ([1]; 0.01 µM) | relative viability ([1]; 0.03162 µM) | relative viability ([1]; 0.1 µM) | relative viability ([1]; 0.3162 µM) | relative viability ([1]; 1 µM) | relative viability ([2]; first compound 0.01 µM) | relative viability ([2]; first compound 0.03162 µM) | relative viability ([2]; first compound 0.1 µM) | relative viability ([2]; first compound 0.3162 µM) | relative viability ([2]; first compound 1 µM) | relative viability ([3]; first compound 0.01 µM) | relative viability ([3]; first compound 0.03162 µM) | relative viability ([3]; first compound 0.1 µM) | relative viability ([3]; first compound 0.3162 µM) | relative viability ([3]; first compound 1 µM) | relative viability ([4]; first compound 0.01 µM) | relative viability ([4]; first compound 0.03162 µM) | relative viability ([4]; first compound 0.1 µM) | relative viability ([4]; first compound 0.3162 µM) | relative viability ([4]; first compound 1 µM) |
| --- | --- | --- | --- | --- | --- | --- | --- | --- | --- | --- | --- | --- | --- | --- | --- | --- | --- | --- | --- | --- |
| LOU-NH91 | 0.912 | 0.841 | 0.908 | 0.771 | 0.558 | 0.652 | 0.589 | 0.688 | 0.569 | 0.414 | 0.698 | 0.589 | 0.5 | 0.485 | 0.467 | 0.825 | 0.747 | 0.73 | 0.69 | 0.723 |
| LU99A | 1 | 0.836 | 0.643 | 0.556 | 0.394 | 0.918 | 0.623 | 0.515 | 0.404 | 0.359 | 0.242 | 0.229 | 0.224 | 0.238 | 0.236 | 0.394 | 0.431 | 0.312 | 0.25 | 0.209 |
| LXF-289 | 0.985 | 0.943 | 1 | 0.894 | 0.771 | 0.518 | 0.494 | 0.494 | 0.418 | 0.175 | 0.951 | 0.699 | 0.709 | 0.6 | 0.293 | 0.71 | 0.684 | 0.695 | 0.557 | 0.64 |
| NCI-H23 | 1.09 | 0.767 | 0.765 | 0.539 | 0.337 | 0.845 | 0.752 | 0.564 | 0.435 | 0.346 | 0.583 | 0.384 | 0.342 | 0.29 | 0.26 | 0.368 | 0.493 | 0.398 | 0.292 | 0.204 |
| NCI-H322M | 0.965 | 1.06 | 0.977 | 0.805 | 0.786 | 0.868 | 0.749 | 0.799 | 0.682 | 0.66 | 0.5 | 0.492 | 0.513 | 0.415 | 0.445 | 0.492 | 0.565 | 0.519 | 0.542 | 0.548 |
| NCI-H358 | 1.04 | 0.918 | 0.834 | 0.729 | 0.416 | 0.372 | 0.45 | 0.307 | 0.323 | 0.168 | 0.803 | 0.788 | 0.429 | 0.385 | 0.178 | 0.143 | 0.102 | 0.133 | 0.107 | 0.135 |
| NCI-H1299 | 1.04 | 0.937 | 0.958 | 0.836 | 0.832 | – | – | – | – | – | – | – | – | – | – | – | – | – | – | – |
| NCI-H1563 | 0.992 | 1.02 | 0.876 | 0.935 | 0.794 | 0.631 | 0.696 | 0.655 | 0.637 | 0.577 | 0.725 | 0.777 | 0.721 | 0.641 | 0.62 | – | – | – | – | – |
| NCI-H1648 | 1.03 | 0.761 | 0.896 | 0.651 | 0.58 | – | – | – | – | – | 0.268 | 0.258 | 0.271 | 0.307 | 0.259 | 0.481 | 0.414 | 0.523 | 0.466 | 0.481 |
| NCI-H1703 | 0.853 | 0.75 | 0.287 | 0.33 | 0.344 | – | – | – | – | – | – | – | – | – | – | – | – | – | – | – |

Source: the supplement of paper PMC10307832
